Source: article PMC12681733, “Multifunctional kojic acid-tetrahydroisoquinoline hybrids: Synthesis, tyrosinase inhibition, and applications in the anti-browning of fresh-cut mushrooms” (Current Research in Food Science, 2025)

Columns and labels:
tyrosinase [1] = conditions: ref Zhang et al., 2025; cited from earlier work
tyrosinase [2] = biological target: tyrosinase (Agaricus bisporus, UniProt C7FF04); test: Kinetic analysis (Lineweaver-Burk plots, L-DOPA); format: biochemical, mushroom
Experimental: Reaction rates were determined using different concentrations of compounds (1.25, 2.5, and 5 μM) and L-DOPA solutions (0.5, 1, 1.5, and 2 mM).

zebrafish embryos = test: Acute toxicity in zebrafish embryos (OECD FET No. 236); format: in vivo; conditions: 4c 25, 50, 100 μM; KA 100 μM; observed at 48 hpf
Experimental: The acute toxicity assay was conducted in accordance with the Guidelines of Organization for Economic Co-operation and Development (OECD) for the Testing of Chemicals, Fish Embryo Acute Toxicity (FET) Test, No. 236 ([OECD, 2013]). All zebrafish procedures in this study were approved by Anhui Medical University Experimental Animal Ethics Committee (Protocol No.: LLSC20241625). The zebrafish were maintained in accordance with the established protocols of the Zebrafish International Resource Center. Surviving zebrafish were humanely euthanized at the end of the study to prevent prolonged suffering. The euthanasia method involved immersion in a buffered solution of tricaine methanesulfonate at a concentration of 300 mg/L for at least 10 min, followed by confirmation of death through the cessation of gill movement and heartbeat. Carcasses were promptly frozen at −20 °C and disposed of through authorized biological waste channels.
Referring to published methods with certain modifications ([Qian et al., 2018]), 13–15 h post-fertilization (hpf) zebrafish embryos were placed in small dishes containing 5 mL of culture medium in this experiment. Different concentrations of 4c (25, 50, 100 μM) and KA (100 μM) were added to the dishes, respectively, and the experiments were repeated three times. […]

tyrosinase [3] = test: Fluorescence quenching of tyrosinase; format: binding
Experimental: Fluorescence intensity quantification was performed on a spectrofluorometer (Cary Eclipse) following a literature-established protocol ([Peng et al., 2021]), a tyrosinase solution (200 U/mL) was prepared in phosphate buffer (pH = 6.8). Incremental volumes of 4c solution at identical concentrations were added to the enzyme solution. With an excitation wavelength of 280 nm, an emission slit width of 5 nm, and the mixture was recorded in the 290–450 nm emission wavelength range.

tyrosinase [4] = test: ANS-binding fluorescence measurement; conditions: 4c from 0 μM to 50 μM
Experimental: An equal volume of ANS solution (80 μM) was added to the tyrosinase solution (400 U/mL). After thorough mixing, the mixture was left to stand at room temperature for 30 min. Subsequently, a specific amount of the ANS-labeled tyrosinase solution was extracted, vigorously shaken, and 4c was incrementally added dropwise to this mixture. The fluorescence spectrum of the mixture was scanned under conditions of an excitation wavelength of 390 nm, an emission slit width of 5 nm, and an emission wavelength range of 400–600 nm ([Lü et al., 2010]).

tyrosinase [5] = test: UV spectra measurement; format: binding; conditions: addition of 4c
Experimental: Following the reported methods ([Chen et al., 2022]), a 3 mL assay system was established by adding a solution of 4c (300 μM, 350 μL) and tyrosinase solution (200 U/mL, 400 μL) to 2250 μL of PBS at pH 6.8. Spectral measurements were carried out using a UV-1800 spectrophotometer with wavelength scanning from 200 to 400 nm. Three experimental controls were implemented: (1) PBS buffer as blank reference, (2) 4c solution in PBS without enzyme, and (3) enzyme solution in PBS without 4c. To ensure measurement reliability, all spectra were acquired in triplicate through independent scanning processes. Background corrections were systematically applied using corresponding control solutions for each experimental condition.

[6] = Stability evaluation (HPLC content); format: physicochemical
Experimental: The purpose of stability testing is to provide evidence on how the quality of an active substance varies with time under the influence of a variety of environmental factors such as temperature, humidity, and light. Compound 4c with the strongest activity was evaluated for its stability. 4c was first dissolved in acetonitrile to prepare a 100 mM stock solution. This stock solution was then diluted to a 10 mM working concentration using different pH buffer solutions (4.0, 7.0 and 9.0). The samples were aliquoted into sealed vials. These vials were placed at different temperatures (25 °C, 40 °C and 60 °C) under both light-exposed and light-protected conditions for stability testing. The content change of the compound was monitored at scheduled time intervals (0 h, 24 h and 72 h) using an HPLC method.

Escherichia coli = test: Antibacterial activity, plate counting; format: cell-based; conditions: for antibacterial rate against E. coli: KA and THIQ groups, Fig. 7A
Experimental: (§1) The antibacterial activity of 4c against Escherichia coli (E. coli) and Staphylococcus aureus (S. aureus) was evaluated using a modified plate counting method based on literature reports ([Ruan et al., 2024]). In this process, the strains were first activated on LB agar medium at 37 °C for 18 h. Subsequently, bacterial suspensions (1 × 10^8 CFU/mL) were prepared in fresh nutrient broth medium according to the 0.5 McFarland turbidity standard. These suspensions were then diluted to 1 × 10^5 CFU/mL for antibacterial testing. Various concentrations of 4c solutions were prepared and mixed with the 1 × 10^5 CFU/mL bacterial suspensions, with equal volumes of physiological saline added to the control group. The mixtures were incubated at 37 °C for 12 h, serially diluted, plated (100 μL) onto plate count agar medium, and incubated for 24 h at 37 °C for colony counting. Each experiment was conducted in triplicate, and the antibacterial rate was calculated using the following formula (2):(2) BacterialInhibitionrate(%)=(1−XS/X0)×100% where X0 represented the bacterial colony count of the control group post 24-h incubation, while XS denoted the average bacterial colony count of the sample group.

Staphylococcus aureus = test: Antibacterial activity, plate counting; format: cell-based; conditions: for antibacterial rate against S. aureus: KA and THIQ groups, Fig. 7A
Experimental: as §1

Botrytis cinerea = test: Antifungal activity, radial growth on PDA; format: cell-based; conditions: 4c at high concentrations (5, 15, 30 μg/mL tested), 72 h
Experimental: Fungal contamination is a major cause of food spoilage. To evaluate the antifungal potential of 4c, its efficacy against the common phytopathogen Botrytis cinerea (B. cinerea) was investigated ([Zhou et al., 2025]). The assay was performed as follows: B. cinerea was first cultivated on Potato Dextrose Agar (PDA) to ensure robust growth. Subsequently, 4c was prepared at various concentrations and incorporated into PDA to form a drug-containing medium. Fungal mycelia were then inoculated onto the center of both the treatment and control plates, with the latter containing an equal volume of physiological saline instead of the compound. All plates were incubated at 27 °C for 72 h. Following incubation, the colonial growth on each Petri dish was photographed, with particular attention to the mycelial morphology and expansion. The antifungal activity was quantified by measuring the radial growth of the fungus, and the inhibition rate was calculated according to formula (3):(3) FungalInhibitionrate(%)=(1−DS/D0)×100% where D0 is the growth size of the control group, DS is the growth size of the group containing the sample group.

fresh-cut mushrooms = test: Anti-browning study on fresh-cut mushrooms; set-up: species or system button mushrooms; conditions: 100 μM sprayed, 4 °C, 7-day storage; versus KA and control
Experimental: Fresh and clean mushrooms of appropriate size were purchased from the local supermarket and their surfaces were evenly trimmed. […] CIE Lab values (L∗, a∗, and b∗) were measured using a colorimeter (NR60CP) to monitor the color changes of the fresh-cut mushrooms ([Wang et al., 2023]). The browning progression on mushroom surfaces was monitored via daily photographic documentation. The anti-browning efficacy was quantified using the total color difference (ΔE), calculated according to formula (4):(4) ΔE=[(Lt∗−Linitial∗)^2+(at∗−ainitial∗)^2+(bt∗−binitial∗)^2]^0.5

[7] = plot of log[(F0−F)/F] against log[I]
[8] = 4c at high concentrations (5, 15, 30 μg/mL tested)

Chain of tyrosinase (Agaricus bisporus, UniProt C7FF04) (C7FF04 1-392): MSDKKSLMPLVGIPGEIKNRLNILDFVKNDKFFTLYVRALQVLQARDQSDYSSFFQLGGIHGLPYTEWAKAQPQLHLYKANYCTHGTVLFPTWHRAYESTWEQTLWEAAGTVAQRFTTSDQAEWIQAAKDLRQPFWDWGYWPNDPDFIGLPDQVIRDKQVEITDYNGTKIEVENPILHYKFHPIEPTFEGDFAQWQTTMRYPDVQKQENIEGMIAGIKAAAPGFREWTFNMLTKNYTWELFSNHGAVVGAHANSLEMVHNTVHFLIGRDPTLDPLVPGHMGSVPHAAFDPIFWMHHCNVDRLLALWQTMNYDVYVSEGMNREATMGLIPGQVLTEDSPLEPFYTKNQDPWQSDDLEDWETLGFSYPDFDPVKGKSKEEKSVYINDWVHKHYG

SMILES: Oc1ccccc1-c1nnc(S)o1 [Compound 2f, 5-(2-hydroxyphenyl)-1,3,4-oxadiazole-2-thiol]
- IC50 (tyrosinase [1]): 17.7 ± 0.21 µM

SMILES: COc1ccc2c(c1)CCN(Cc1cc(=O)c(O)co1)C2 [Compound 4c]
- Ki (tyrosinase [2]; L-DOPA substrate, slope replot, read-out: inhibition constant Ki for free enzyme): 1.48 µM
- inhibition type (tyrosinase [2]; Lineweaver-Burk plots): mixed-type inhibitor
- acute toxicity in zebrafish embryos (zebrafish embryos): no significant toxic effects
- relative fluorescence intensity (tyrosinase [3]; 25 μM 4c): 52%
- fluorescence intensity of tyrosinase (tyrosinase [3]; 25 μM 4c, 146.61 without inhibitor, emission peak 354 nm): 76.92
- fluorescence quenching mechanism (tyrosinase [3]; Kq versus maximum dynamic quenching constant): static quenching
- Stern-Volmer quenching constant Ksv (tyrosinase [3]; Stern-Volmer plot): 43000 L/mol
- bimolecular quenching constant Kq (tyrosinase [3]; Stern-Volmer plot): 4.3 × 10^12 L mol^−1 S^−1
- apparent binding constant Ka (tyrosinase [3]; [7]): 15100 L/mol
- number of binding sites n (tyrosinase [3]; [7]): 1.11
- maximum fluorescence intensity of ANS-TYR (tyrosinase [4]): gradually increased
- characteristic absorption peak of tyrosinase at 280 nm (tyrosinase [5]): significant decrease
- content (stability testing) ([6]; 25℃, pH 4, 0 h): 97.01%
- content (stability testing) ([6]; 25℃, pH 4, 24 h): 98.10%
- content (stability testing) ([6]; 25℃, pH 4, 72 h): 98.32%
- content (stability testing) ([6]; 25℃, pH 7, 0 h): 98.63%
- content (stability testing) ([6]; 25℃, pH 7, 24 h): 97.48%
- content (stability testing) ([6]; 25℃, pH 7, 72 h): 98.03%
- content (stability testing) ([6]; 25℃, pH 9, 0 h): 97.43%
- content (stability testing) ([6]; 25℃, pH 9, 24 h): 97.48%
- content (stability testing) ([6]; 25℃, pH 9, 72 h): 97.59%
- content (stability testing) ([6]; 40℃, pH 4, 0 h): 97.02%
- content (stability testing) ([6]; 40℃, pH 4, 24 h): 97.50%
- content (stability testing) ([6]; 40℃, pH 4, 72 h): 97.41%
- content (stability testing) ([6]; 40℃, pH 7, 0 h): 97.56%
- content (stability testing) ([6]; 40℃, pH 7, 24 h): 96.04%
- content (stability testing) ([6]; 40℃, pH 7, 72 h): 97.75%
- content (stability testing) ([6]; 40℃, pH 9, 0 h): 96.51%
- content (stability testing) ([6]; 40℃, pH 9, 24 h): 95.00%
- content (stability testing) ([6]; 40℃, pH 9, 72 h): 96.12%
- content (stability testing) ([6]; 60℃, pH 7, 0 h): 96.64%
- content (stability testing) ([6]; 60℃, pH 7, 24 h): 96.84%
- content (stability testing) ([6]; 60℃, pH 7, 72 h): 96.62%
- content (stability testing) ([6]; 60℃, pH 9, 0 h): 96.61%
- content (stability testing) ([6]; 60℃, pH 9, 24 h): 96.04%
- content (stability testing) ([6]; 60℃, pH 9, 72 h): 96.26%
- content (stability testing) ([6]; Light, pH 7, 0 h): 96.64%
- content (stability testing) ([6]; Light, pH 7, 24 h): 96.84%
- content (stability testing) ([6]; Light, pH 7, 72 h): 96.62%
- content (stability testing) ([6]; Light, pH 9, 0 h): 96.61%
- content (stability testing) ([6]; Light, pH 9, 24 h): 96.04%
- content (stability testing) ([6]; Light, pH 9, 72 h): 96.26%
- retention rate ([6]; after 72 h, all pH (4.0, 7.0, 9.0) and temperatures (25, 40, 60 °C)): > 95%
- inhibition rate against E. coli (Escherichia coli; [8]): ~100%
- inhibition rate against S. aureus (Staphylococcus aureus; [8]): ~100%
- inhibition rate against B. cinerea (Botrytis cinerea): ~90%
- L∗ (lightness) of fresh-cut mushrooms (fresh-cut mushrooms): highest L∗ value
- total color difference ΔE of fresh-cut mushrooms (fresh-cut mushrooms): lowest ΔE value

SMILES: O=c1cc(CO)occ1O [Kojic acid]
- acute toxicity in zebrafish embryos (zebrafish embryos): partial mortality
- antibacterial rate against E. coli (Escherichia coli): low antibacterial rates
- antibacterial rate against S. aureus (Staphylococcus aureus): low antibacterial rates

SMILES: c1ccc2c(c1)CCNC2 [THIQ, tetrahydroisoquinoline]
- antibacterial rate against E. coli (Escherichia coli): low antibacterial rates
- antibacterial rate against S. aureus (Staphylococcus aureus): low antibacterial rates
